Molecules are shown by their SMILES. “And” between values parts separate entries of the source, which are not always exact repeats. Equal entries are not always repeated.

For orientation: viability, T/C means the result in the treated group divided by that in the control group, in per cent. Usually IC50 stands for the midpoint of a concentration-inhibition curve.

In this experiment the test system is 415267-285-R-J2-PDC complex spheroid viability. Description: Anticancer human tumor 415267-285-R-J2-PDC patient-derived breast carcinoma cell line growth inhibition [POLQ]. The conditions noted are these: for viability, T/C: stronger effect = lower value. How it is done: Multicellular complex tumor spheroid response to Polymerase (POL) inhibitors (novobiocin, ART-558, RP6685) in combination with a variety of drugs and investigational agents in selected tumor cell lines
The POL inhibitors (novobiocin, ART-558, and RP6685) were evaluated both individually and in combination with standard of care and investigational anticancer small molecules within a complex spheroid model of solid tumors. . Complex spheroids include a stromal component modeled by human endothelial cells (HUVEC) and fibroblasts modeled by human mesenchymal stem cells (MSCs). The concentration ranges selected for each drug and investigational agent were based upon clinically achievable concentrations if the clinical Cmax of the agent was known.
Compounds. The drugs and investigational agents: novobiocin (NSC847541), ART-558 (NSC835418), RP-6685 (NSC848927), peposertib (NSC802822), ceralasertib (NSC780249), elimusertib (NSC800525), camonsertib (NSC841442), AZD-1390 (NSC803789), olaparib (NSC753686), talazoparib (NSC767125), rucaparib (NSC756644), sotorasib (NSC818433), MRTX-1133 (NSC836407), SN-38 (NSC673596), topotecan (NSC609699), epotoside (NSC141540), doxorubicin (NSC123127), gemcitabine (NSC613327), 5-fluorouracil (NSC19893), paclitaxel (NSC125973), vemurafenib (NSC761431), MSA-2 (NSC828583), SN-011 (NSC837082), adavosertib (NSC754352), prexasertib (NSC758257), carboplatin (NSC241240) and oxaliplatin (NSC266046), were obtained from the National Cancer Institute (NCI) Developmental Therapeutics Program Chemical Repository (21). The FDA-approved anticancer drug set is available from the Developmental Therapeutics Program at https://dtp.cancer.gov/organization/dscb/obtaining/. […] The stock solutions were prepared in dimethyl sulfoxide (DMSO, Sigma-Aldrich, St. Louis, MO, cat. D2650), except for the platinum compounds which were prepared in saline (Quality Biological, Gaithersburg, MD, cat. 114-055-101), at 800-fold the tested concentration and stored at -70 degrees C prior to their use. All drugs and investigational agents were tested over a range starting from a high concentration at or near the clinical Cmax and decreasing in half-log increments. If the clinical Cmax for an agent had not been determined, the highest concentration tested was 10 microM, except for SN-38, which was tested at a high concentration of 1 microM.
Cell Culture. All cells were maintained in an incubator at 37 degrees C and 5% CO2 with 95% humidity. The PDC lines were cultured according to standard operating procedures established by the NCI PDMR (https://pdmr.cancer.gov). Table 3 of the manuscript, lists the cell lines along with the number of the three cell types plated to form the mct-spheroids and media for tumor cell growth. After thawing, all PDC lines, except 997537-175-T-J1-PDC and 415267-285-R-J2-PDC, were cultured in Matrigel-coated flasks prepared with a working solution of 1X Ham's F-12 nutrient mix, without supplementation (Thermo Fisher Scientific, cat. 11765054), 100 U/mL penicillin-streptomycin (Thermo Fisher Scientific, cat. 15140122), and 2.5% Matrigel (Corning Inc., Corning, NY, cat. 354248) for the first three passages. The two PDC lines 997537-175-T-J1-PDC and 415267-285-R-J2-PDC were cultured on uncoated flasks. The 857933-349-R-J2-PDC line was cultured in 6C/Colon 1B media containing advanced DMEM/F-12 (Thermo Fisher Scientific, cat. 12634028), 10 mM HEPES (Thermo Fisher Scientific, cat. 15630080), 1X GlutaMAX supplement (Thermo Fisher Scientific, cat. 35050061), 0.1 mg/mL primocin (InvivoGen, San Diego, CA, cat. ant-pm-2), 10% defined fetal bovine serum, heat inactivated (HyClone Laboratories Inc., Logan, UT, cat. SH30070.03HI), 50% L-WRN conditioned media (ATCC, cat. CRL-3276), 1.25 mM N-Acetyl-L-cysteine (Sigma-Aldrich, cat. A9165), 10 mM nicotinamide (Sigma-Aldrich, cat. N0636), 1X B-27 supplement (Thermo Fisher Scientific, cat. 17504044), 1X N-2 supplement (Thermo Fisher Scientific, cat. […]

[1] abbreviates: compound alone, run of 01/08/2024.
[2] abbreviates: compound alone, run of 01/19/2024.
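Also: spheroids exposed to compounds for one week before readout.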
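For viability, T/C in this document: luminescence used as stand-in measure of viable cells.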

Regarding `COC1C(OC(N)=O)C(O)C(Oc2ccc3c(O)c(NC(=O)c4ccc(O)c(CC=C(C)C)c4)c(=O)oc3c2C)OC1(C)C` (centres undefined), the viability, T/C by setting is: (compound 0.0316 µM) 99.2% [middle of 13 runs]; (compound 0.1 µM) 105% [middle of 13 runs]; (compound 0.316 µM) 99.3% [middle of 13 runs]; (compound 3.16 µM) 102% [middle of 13 runs]; (compound 10 µM) 102% [middle of 13 runs]. Besides, the IC50 under setting [1] was above 10000 nM.
`COc1cc(C2c3cc4c(cc3C(OC3OC5COC(C)OC5C(O)C3O)C3COC(=O)C23)OCO4)cc(OC)c1O` (centres undefined): the viability, T/C is 91.8% and 103% and 92% (compound 0.0316 µM); 59.7% and 89.7% and 71.3% (compound 0.1 µM); 14.1% and 19.4% and 17.1% (compound 0.316 µM); 7.22% and 5.65% and 8.76% (compound 1 µM); 4.9% and 4.07% and 5.15% (compound 3.16 µM); 5.87% and 5.42% and 6.28% (compound 10 µM). Where the note is “curve of compound”, the IC50 was 128 nM and 192 nM and 157 nM.
With `COc1ccc([C@@H](O)c2cc(-c3ncnc4cc(N5CCOCC5)ccc34)c(F)cc2Cl)nn1`, the viability, T/C (compound 0.0316 µM) is 95.9% and 109% and 85.5%; the viability, T/C (compound 0.1 µM) is 113% and 97.3% and 88.6%; the viability, T/C (compound 0.316 µM) is 95.8% and 98.6% and 91.6%; the viability, T/C (compound 1 µM) is 95.5% and 92.4% and 92.3%; the viability, T/C (compound 3.16 µM) is 86% and 89.3% and 87.6%; the viability, T/C (compound 10 µM) was 40.4% and 53.2% and 40.9%. In addition, for the setting “curve of compound”, the IC50 is 7850 nM and > 10000 nM and 7990 nM.
As for `COc1cccc(OCCCN)c1-c1cc(Nc2cnc(C#N)cn2)n[nH]1`, the viability, T/C (compound 0.00316 µM) was 36.5% and 110% and 99.9%; the viability, T/C (compound 0.0316 µM) was 6.92% and 6.25% and 7.08%; the viability, T/C (compound 0.1 µM) was 6.87% and 6.41% and 5.7%; the viability, T/C (compound 0.316 µM) is 6.1% and 4.51% and 5.49%; the viability, T/C (compound 1 µM) is 4.67% and 5.09% and 3.72%. In addition, where the note is “curve of compound”, the IC50 is < 3.16 nM and 7.96 nM and 7.26 nM.
Turning to `COc1cccc2c1C(=O)c1c(O)c3c(c(O)c1C2=O)CC(O)(C(=O)CO)CC3OC1CC(N)C(O)C(C)O1` (centres undefined), the viability, T/C was 35.4% and 85.5% and 41% (compound 0.0316 µM); 9.21% and 18.3% and 12.6% (compound 0.1 µM); 5.21% and 3.68% and 5.75% (compound 0.316 µM); 0.77% and 1.01% and 0.92% (compound 1 µM); 2.13% and 1.47% and 1.31% (compound 3.16 µM); 2.79% and 3.72% and 2.89% (compound 10 µM). In addition, the IC50 (curve of compound) was < 31.6 nM and 58.1 nM.
For the compound `Cc1cccc(N(C)C(=O)C2C(O)CCN2c2nc(C)cc(C(F)(F)F)c2C#N)c1` (centres undefined), the viability, T/C was 99.1% [middle of 13 runs] (compound 0.0316 µM); 100% [middle of 13 runs] (compound 0.1 µM); 102% [middle of 13 runs] (compound 0.316 µM); 103% [middle of 13 runs] (compound 1 µM); 104% [middle of 13 runs] (compound 3.16 µM); 98.5% [middle of 13 runs] (compound 10 µM). Besides, the IC50 reads like this: under setting [1], above 10000 nM; under setting [2], above 10000 nM.
`Cn1ncnc1[C@H]1c2n[nH]c(=O)c3cc(F)cc(c23)N[C@@H]1c1ccc(F)cc1`: the viability, T/C runs as follows: (compound 0.000316 µM) 88.1% and 97.7% and 104%; (compound 0.001 µM) 98.2% and 104% and 91.7%; (compound 0.00316 µM) 90.7% and 92.5% and 103%; (compound 0.01 µM) 101% and 98.7% and 94.5%; (compound 0.0316 µM) 108% and 89.2% and 99%; (compound 0.1 µM) 93.3% and 102% and 100%. Moreover, the IC50 (curve of compound) is above 100 nM.
For `Nc1ccc(C#CCN(C(=O)Cc2ncc(C(F)(F)F)cc2C(F)(F)F)c2ccc(F)cc2)nn1`, the viability, T/C (compound 0.0316 µM) was 93.6% [middle of 13 runs]; the viability, T/C (compound 0.1 µM) was 101% [middle of 13 runs]; the viability, T/C (compound 0.316 µM) is 101% [middle of 12 runs]; the viability, T/C (compound 1 µM) is 103% [middle of 13 runs]; the viability, T/C (compound 3.16 µM) was 107% [middle of 13 runs]; the viability, T/C (compound 10 µM) was 106% [middle of 13 runs]. Moreover, the IC50 under setting [2] was above 10000 nM.
For `O=C(c1cc(Cc2n[nH]c(=O)c3ccccc23)ccc1F)N1CCN(C(=O)C2CC2)CC1`, the viability, T/C by setting is: (compound 0.0316 µM) 92.7% and 95.5% and 108%; (compound 0.1 µM) 109% and 91.4% and 105%; (compound 0.316 µM) 86.8% and 95.3% and 97.5%; (compound 1 µM) 87.8% and 94.8% and 102%; (compound 3.16 µM) 95.3% and 95.4% and 109%; (compound 10 µM) 76.9% and 90.6% and 102%. The IC50 (curve of compound) was above 10000 nM.
For `O=c1[nH]cc(F)c(=O)[nH]1`, the viability, T/C is, setting by setting: (compound 0.0316 µM) 87.3% and 92.5% and 87%; (compound 0.1 µM) 74.7% and 89% and 73.5%; (compound 0.316 µM) 33.6% and 48.5% and 30.5%; (compound 1 µM) 29.1% and 24.6% and 27.7%; (compound 3.16 µM) 24.6% and 24.4% and 26%; (compound 10 µM) 31.8% and 40.5% and 34.1%. For the same compound, the IC50 (curve of compound) is 200 nM and 302 nM and 187 nM.

(Values after PubChem BioAssay AID1963847 (Molecular Pharmacology Branch, DTP, NCI, 2024).)
